Where two headings read alike, the source gives them in different places.
How the values were obtained:
Assay in all cases: Glasshouse assay for herbicidal activity (pre- and post-emergence), percentage phytotoxicity
Type in all cases: in vivo
[1] = system: Alopecurus myosuroides (ALOMY); conditions: Alopecurus myosuroides
In short: (§1)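 Percent injury was estimated by eye on a scale where 0% means no damage and 100% complete damage. Ratings came 15 DAA post-emergence and 20 DAA pre-emergence, with plants held under 16 h light and 65% humidity at 24/18 °C or 20/16 °C day/night.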

[2] = system: Avena fatua (AVEFA); conditions: Avena fatua
In short: as §1

[3] = system: Echinochloa crus-galli (ECHCG); conditions: Echinochloa crus-galli
In short: as §1

[4] = system: Lolium perenne (LOLPE); conditions: Lolium perenne
In short: as §1

[5] = post-emergence, 360 h, Rate 250 g/ha, post-emergence, assessed visually 15 DAA, 100%=total damage, 0%=no damage, read-out: Post-emergence herbicidal activity (percentage phytotoxicity) ALOMY POST
[6] = pre-emergence, 480 h, Rate 250 g/ha, pre-emergence, assessed visually 20 DAA, 100%=total damage, 0%=no damage, read-out: Pre-emergence herbicidal activity (percentage phytotoxicity) ALOMY PRE
[7] = post-emergence, 360 h, Rate 250 g/ha, post-emergence, assessed visually 15 DAA, 100%=total damage, 0%=no damage, read-out: Post-emergence herbicidal activity (percentage phytotoxicity) AVEFA POST
[8] = pre-emergence, 480 h, Rate 250 g/ha, pre-emergence, assessed visually 20 DAA, 100%=total damage, 0%=no damage, read-out: Pre-emergence herbicidal activity (percentage phytotoxicity) AVEFA PRE
[9] = post-emergence, 360 h, Rate 250 g/ha, post-emergence, assessed visually 15 DAA, 100%=total damage, 0%=no damage, read-out: Post-emergence herbicidal activity (percentage phytotoxicity) ECHCG POST
[10] = pre-emergence, 480 h, Rate 250 g/ha, pre-emergence, assessed visually 20 DAA, 100%=total damage, 0%=no damage, read-out: Pre-emergence herbicidal activity (percentage phytotoxicity) ECHCG PRE
[11] = post-emergence, 360 h, Rate 250 g/ha, post-emergence, assessed visually 15 DAA, 100%=total damage, 0%=no damage, read-out: Post-emergence herbicidal activity (percentage phytotoxicity) LOLPE POST
[12] = pre-emergence, 480 h, Rate 250 g/ha, pre-emergence, assessed visually 20 DAA, 100%=total damage, 0%=no damage, read-out: Pre-emergence herbicidal activity (percentage phytotoxicity) LOLPE PRE
[13] = post-emergence, 360 h, POST-emergence, rate 250 g/ha, visual score 15 DAA (100%=total damage, 0%=no damage), read-out: Post-emergence herbicidal activity (percentage phytotoxicity) ALOMY POST
[14] = pre-emergence, 480 h, PRE-emergence, rate 250 g/ha, visual score 20 DAA (100%=total damage, 0%=no damage), read-out: Pre-emergence herbicidal activity (percentage phytotoxicity) ALOMY PRE
[15] = post-emergence, 360 h, POST-emergence, rate 250 g/ha, visual score 15 DAA (100%=total damage, 0%=no damage), read-out: Post-emergence herbicidal activity (percentage phytotoxicity) AVEFA POST
[16] = pre-emergence, 480 h, PRE-emergence, rate 250 g/ha, visual score 20 DAA (100%=total damage, 0%=no damage), read-out: Pre-emergence herbicidal activity (percentage phytotoxicity) AVEFA PRE
[17] = post-emergence, 360 h, POST-emergence, rate 250 g/ha, visual score 15 DAA (100%=total damage, 0%=no damage), read-out: Post-emergence herbicidal activity (percentage phytotoxicity) ECHCG POST
[18] = pre-emergence, 480 h, PRE-emergence, rate 250 g/ha, visual score 20 DAA (100%=total damage, 0%=no damage), read-out: Pre-emergence herbicidal activity (percentage phytotoxicity) ECHCG PRE
[19] = post-emergence, 360 h, POST-emergence, rate 250 g/ha, visual score 15 DAA (100%=total damage, 0%=no damage), read-out: Post-emergence herbicidal activity (percentage phytotoxicity) LOLPE POST
[20] = pre-emergence, 480 h, PRE-emergence, rate 250 g/ha, visual score 20 DAA (100%=total damage, 0%=no damage), read-out: Pre-emergence herbicidal activity (percentage phytotoxicity) LOLPE PRE

## Cc1cc(-c2ncc(Cl)cc2F)cc(C)c1C1C(=O)CC(CC(=O)NC(C)c2ccc(F)cc2)C1=O (stereo not drawn) [Compound A124]
[1]; [5]
  pest or weed control at 250 g/ha: 90%
[1]; [6]
  pest or weed control at 250 g/ha: 70%
[2]; [7]
  pest or weed control at 250 g/ha: 100%
[2]; [8]
  pest or weed control at 250 g/ha: 80%
[3]; [9]
  pest or weed control at 250 g/ha: 100%
[3]; [10]
  pest or weed control at 250 g/ha: 90%
[4]; [11]
  pest or weed control at 250 g/ha: 100%
[4]; [12]
  pest or weed control at 250 g/ha: 90%

## Cc1cc(-n2cc(Cl)cn2)cc(C)c1C1C(=O)CC(CC(=O)NC2CC2)C1=O (stereo not drawn) [Compound A75]
[1]; [5]
  pest or weed control at 250 g/ha: 100%
[1]; [6]
  pest or weed control at 250 g/ha: 100%
[2]; [7]
  pest or weed control at 250 g/ha: 100%
[2]; [8]
  pest or weed control at 250 g/ha: 90%
[3]; [9]
  pest or weed control at 250 g/ha: 100%
[3]; [10]
  pest or weed control at 250 g/ha: 100%
[4]; [11]
  pest or weed control at 250 g/ha: 90%
[4]; [12]
  pest or weed control at 250 g/ha: 90%

## CCOCOC1=C(c2c(C)cc(-c3ncc(Cl)cn3)cc2C)C(=O)C(CC(=O)NC(C)(C)C)C1 (stereo not drawn) [Compound P6]
[1]; post-emergence, 360 h, Rate 250 g/ha, post-emergence, visual assessment 15 DAA, 100%=total damage, 0%=no damage, read-out: Post-emergence herbicidal activity (percentage phytotoxicity) ALOMY POST
  pest or weed control at 250 g/ha: 100%
[1]; pre-emergence, 480 h, Rate 250 g/ha, pre-emergence, visual assessment 20 DAA, 100%=total damage, 0%=no damage, read-out: Pre-emergence herbicidal activity (percentage phytotoxicity) ALOMY PRE
  pest or weed control at 250 g/ha: 100%
[2]; post-emergence, 360 h, Rate 250 g/ha, post-emergence, visual assessment 15 DAA, 100%=total damage, 0%=no damage, read-out: Post-emergence herbicidal activity (percentage phytotoxicity) AVEFA POST
  pest or weed control at 250 g/ha: 90%
[2]; pre-emergence, 480 h, Rate 250 g/ha, pre-emergence, visual assessment 20 DAA, 100%=total damage, 0%=no damage, read-out: Pre-emergence herbicidal activity (percentage phytotoxicity) AVEFA PRE
  pest or weed control at 250 g/ha: 100%
[3]; post-emergence, 360 h, Rate 250 g/ha, post-emergence, visual assessment 15 DAA, 100%=total damage, 0%=no damage, read-out: Post-emergence herbicidal activity (percentage phytotoxicity) ECHCG POST
  pest or weed control at 250 g/ha: 100%
[3]; pre-emergence, 480 h, Rate 250 g/ha, pre-emergence, visual assessment 20 DAA, 100%=total damage, 0%=no damage, read-out: Pre-emergence herbicidal activity (percentage phytotoxicity) ECHCG PRE
  pest or weed control at 250 g/ha: 100%
[4]; post-emergence, 360 h, Rate 250 g/ha, post-emergence, visual assessment 15 DAA, 100%=total damage, 0%=no damage, read-out: Post-emergence herbicidal activity (percentage phytotoxicity) LOLPE POST
  pest or weed control at 250 g/ha: 100%
[4]; pre-emergence, 480 h, Rate 250 g/ha, pre-emergence, visual assessment 20 DAA, 100%=total damage, 0%=no damage, read-out: Pre-emergence herbicidal activity (percentage phytotoxicity) LOLPE PRE
  pest or weed control at 250 g/ha: 100%

## Cc1ccnc(CNC(=O)CC2CC(=O)C(c3c(C)cc(C)cc3C)C2=O)c1 (stereo not drawn) [Compound B66]
[1]; post-emergence, 360 h, 250 g/ha, post-emergence, 15 DAA, visual assessment (100%=total damage, 0%=no damage), read-out: Post-emergence herbicidal activity (percentage phytotoxicity) ALOMY POST
  pest or weed control at 250 g/ha: 90%
[1]; pre-emergence, 480 h, 250 g/ha, pre-emergence, 20 DAA, visual assessment (100%=total damage, 0%=no damage), read-out: Pre-emergence herbicidal activity (percentage phytotoxicity) ALOMY PRE
  pest or weed control at 250 g/ha: 90%
[2]; post-emergence, 360 h, 250 g/ha, post-emergence, 15 DAA, visual assessment (100%=total damage, 0%=no damage), read-out: Post-emergence herbicidal activity (percentage phytotoxicity) AVEFA POST
  pest or weed control at 250 g/ha: 80%
[2]; pre-emergence, 480 h, 250 g/ha, pre-emergence, 20 DAA, visual assessment (100%=total damage, 0%=no damage), read-out: Pre-emergence herbicidal activity (percentage phytotoxicity) AVEFA PRE
  pest or weed control at 250 g/ha: 0%
[3]; post-emergence, 360 h, 250 g/ha, post-emergence, 15 DAA, visual assessment (100%=total damage, 0%=no damage), read-out: Post-emergence herbicidal activity (percentage phytotoxicity) ECHCG POST
  pest or weed control at 250 g/ha: 80%
[3]; pre-emergence, 480 h, 250 g/ha, pre-emergence, 20 DAA, visual assessment (100%=total damage, 0%=no damage), read-out: Pre-emergence herbicidal activity (percentage phytotoxicity) ECHCG PRE
  pest or weed control at 250 g/ha: 90%
[4]; post-emergence, 360 h, 250 g/ha, post-emergence, 15 DAA, visual assessment (100%=total damage, 0%=no damage), read-out: Post-emergence herbicidal activity (percentage phytotoxicity) LOLPE POST
  pest or weed control at 250 g/ha: 90%
[4]; pre-emergence, 480 h, 250 g/ha, pre-emergence, 20 DAA, visual assessment (100%=total damage, 0%=no damage), read-out: Pre-emergence herbicidal activity (percentage phytotoxicity) LOLPE PRE
  pest or weed control at 250 g/ha: 90%

## C#CCNC(=O)CC1CC(=O)C(c2c(C)cc(C)cc2C)C1=O (stereo not drawn) [Compound A10]
[1]; [5]
  pest or weed control at 250 g/ha: 80%
[1]; [6]
  pest or weed control at 250 g/ha: 70%
[2]; [7]
  pest or weed control at 250 g/ha: 60%
[2]; [8]
  pest or weed control at 250 g/ha: 70%
[3]; [9]
  pest or weed control at 250 g/ha: 90%
[3]; [10]
  pest or weed control at 250 g/ha: 90%
[4]; [11]
  pest or weed control at 250 g/ha: 90%
[4]; [12]
  pest or weed control at 250 g/ha: 90%

## Cc1cc(-c2ncc(Br)cn2)cc(C)c1C1C(=O)CC(CC(=O)NC(C)(C)C)C1=O (stereo not drawn) [Compound B268]
[1]; [13]
  pest or weed control at 250 g/ha: 90%
[1]; [14]
  pest or weed control at 250 g/ha: 100%
[2]; [15]
  pest or weed control at 250 g/ha: 100%
[2]; [16]
  pest or weed control at 250 g/ha: 90%
[3]; [17]
  pest or weed control at 250 g/ha: 100%
[3]; [18]
  pest or weed control at 250 g/ha: 100%
[4]; [19]
  pest or weed control at 250 g/ha: 100%
[4]; [20]
  pest or weed control at 250 g/ha: 100%

## CC#Cc1cc(C)c(C2C(=O)CC(CC(=O)NC3CCC3)C2=O)c(C)c1 (stereo not drawn) [Compound A81]
[1]; [5]
  pest or weed control at 250 g/ha: 90%
[1]; [6]
  pest or weed control at 250 g/ha: 100%
[2]; [7]
  pest or weed control at 250 g/ha: 100%
[2]; [8]
  pest or weed control at 250 g/ha: 100%
[3]; [9]
  pest or weed control at 250 g/ha: 100%
[3]; [10]
  pest or weed control at 250 g/ha: 100%
[4]; [11]
  pest or weed control at 250 g/ha: 90%
[4]; [12]
  pest or weed control at 250 g/ha: 100%

## C=CCNC(=O)CC1CC(=O)C(c2c(C)cc(-n3cc(Cl)cn3)cc2C)C1=O (stereo not drawn) [Compound B226]
[1]; [13]
  pest or weed control at 250 g/ha: 100%
[1]; [14]
  pest or weed control at 250 g/ha: 100%
[2]; [15]
  pest or weed control at 250 g/ha: 90%
[2]; [16]
  pest or weed control at 250 g/ha: 90%
[3]; [17]
  pest or weed control at 250 g/ha: 100%
[3]; [18]
  pest or weed control at 250 g/ha: 100%
[4]; [19]
  pest or weed control at 250 g/ha: 90%
[4]; [20]
  pest or weed control at 250 g/ha: 80%

## Cc1cc(C)c(C2C(=O)CC(CC(=O)NCC3(F)COC3)C2=O)c(C)c1 (stereo not drawn) [Compound A180]
[1]; post-emergence, 360 h, post-emergence, 250 g/ha, 15 DAA, visual score (100%=total damage; 0%=no damage), read-out: ALOMY POST herbicidal activity (percentage phytotoxicity)
  pest or weed control at 250 g/ha: 70%
[1]; pre-emergence, 480 h, pre-emergence, 250 g/ha, 20 DAA, visual score (100%=total damage; 0%=no damage), read-out: ALOMY PRE herbicidal activity (percentage phytotoxicity)
  pest or weed control at 250 g/ha: 40%
[2]; post-emergence, 360 h, post-emergence, 250 g/ha, 15 DAA, visual score (100%=total damage; 0%=no damage), read-out: AVEFA POST herbicidal activity (percentage phytotoxicity)
  pest or weed control at 250 g/ha: 70%
[2]; pre-emergence, 480 h, pre-emergence, 250 g/ha, 20 DAA, visual score (100%=total damage; 0%=no damage), read-out: AVEFA PRE herbicidal activity (percentage phytotoxicity)
  pest or weed control at 250 g/ha: 0%
[3]; post-emergence, 360 h, post-emergence, 250 g/ha, 15 DAA, visual score (100%=total damage; 0%=no damage), read-out: ECHCG POST herbicidal activity (percentage phytotoxicity)
  pest or weed control at 250 g/ha: 70%
[3]; pre-emergence, 480 h, pre-emergence, 250 g/ha, 20 DAA, visual score (100%=total damage; 0%=no damage), read-out: ECHCG PRE herbicidal activity (percentage phytotoxicity)
  pest or weed control at 250 g/ha: 20%
[4]; post-emergence, 360 h, post-emergence, 250 g/ha, 15 DAA, visual score (100%=total damage; 0%=no damage), read-out: LOLPE POST herbicidal activity (percentage phytotoxicity)
  pest or weed control at 250 g/ha: 30%
[4]; pre-emergence, 480 h, pre-emergence, 250 g/ha, 20 DAA, visual score (100%=total damage; 0%=no damage), read-out: LOLPE PRE herbicidal activity (percentage phytotoxicity)
  pest or weed control at 250 g/ha: 0%

— patent US10206394B2, “Herbicidal compounds” (Syngenta Participations AG, priority 2014, dated 2019)
